Values quoted from earlier work as cited in patent publication US20260130846A1, “ORAL PRODUCT” (NICOVENTURES TRADING LIMITED, priority 2022, published 2026).

What was measured:
[1] = humans
[2] = mammals

For CCNC(=O)CC[C@H](N)C(=O)O [Theanine, L-γ-glutamylethylamide], the “Absorption; plasma levels after oral consumption” value [1] is listed as “rapidly absorbed, with plasma levels rising in a linear dose-related manner” and the “Time for which brain levels continue to increase after consumption” value [2] is listed as 4 h.
